# Like-named read-outs stand apart in the source and are kept apart here.
# How the values were obtained:
# [1] = target: T1, HCV NS3 helicase NS3h_1b(con1) (Hepatitis C virus genotype 1b, UniProt Q9WMX2); assay: biochemical; format: biochemical, hepatitis C virus genotype 1b(con1)
# T1 construct: truncated C-terminally His-tagged NS3 proteins lacking the N-terminal protease, called NS3h; His-tag (C); made in house
# From the text: All oligonucleotides were purchased from Integrated DNA Technologies (IDT, Coralville, Iowa). The partially duplex DNA substrates used in MBHAs consisted of a helicase substrate forming 25 base pairs and consists of a 45-mer bottom strand 5′-GCTCCCCGTTCATCGATTGGGGAGC(T)20-3′ (SEQ ID NO:1) and the 25-mer HCV top strand 5′-Cy5-GCTCCCCAATCGATGAACGGGGAGC-IBRQ-3′ (SEQ ID NO:2). The 19 base pair RNA substrate used in MBHAs was composed of a 39 nucleotide long bottom strand 5′-AGU GCC UUG ACG AUA CAG C(U)20-3′ (SEQ ID NO:3) and the 24 nucleotide long top strand 5′-Tye^665-AGUGCGCUGUAUCGUCAAGGCACU-IBRQSp-3′ (SEQ ID NO:4). Underlined areas denote hairpin-forming regions. DNA and RNA substrates were annealed and purified as described previously (Belon & Frick (2008) BioTechniques 45:433-40, 442).
# The cloning, expression, and purification of His-tagged recombinant HCV NS3 protein have been described previously (Lam, et al. (20030 J. Virol. 77:3950-61; Heck, et al. (2008) Antimicrob. Agents Chemother. 52:1901-11; Frick et al. (2010) Methods Mol. Biol. 587:223-233; Belon, et al. & Frick (2009) J. Mol. Biol. 388:851-864).
# All molecular beacon-based helicase assays (MBHAs) were performed according to known methods (Belon & Frick (2008) supra; Belon & Frick (2009) supra). […] In each flat, black 384-well plate, 56 compounds were tested, in triplicate, along with three negative controls (DMSO only), three positive controls (500 nM dT20), and two wells with no enzyme. Fluorescence was read before ATP (F0) addition and 30 minutes after ATP was added to 1 mM (F30) using a Tecan Infinite M200 fluorescence microplate reader with excitation and emission wavelengths set to 643 and 670 nm, respectively. Percent inhibition was calculated with equation 1, and compound interference in the MBHA was calculated with equation 2.
# To monitor helicase reaction kinetics and to calculate IC50 values, MBHAs were performed in 60 μL in white ½ area 96-well plates and measured in a Thermo Varioscan Multimode reader (Thermo Scientific) using the 643 nm excitation wavelength and 667 emission wavelengths. Reactions were again performed by first incubating all components except for ATP for two minutes, then initiated by injecting in 1/10 volume of ATP such that the final concentration of all components was as noted above. Conditions were as described above except that 5% v/v DMSO was present in each assay. Initial reaction velocities were calculated by fitting first-order decay equation to data obtained after ATP addition and calculating an initial velocity form the resulting amplitude and rate constant.
# [formula] where, v0 is the velocity observed in DMSO-only controls inhibition, h is the Hillslope coefficient, [I] is the concentration of test compound.
# [2] = target: T2, NS3h_2a (Hepatitis C virus genotype 2a, UniProt Q99IB8); assay: RNA helicase assay (three-stranded RNA substrate); format: biochemical, hepatitis C virus genotype 2a(JFH1)
# T2 construct: truncated C-terminally His-tagged NS3 proteins lacking the N-terminal protease, called NS3h; His-tag (C); made in house
# Protocol: To act as antivirals in cells, it is also important for an HCV helicase inhibitor to inhibit the activity of the NS3h on RNA. […] As with protein specificity, no differences were uncovered regarding substrate specificity for any of the compounds tested. In other words, none of the compounds preferred to act either on DNA or RNA substrates.
# [3] = target: scNS4A-NS3 (Hepatitis C virus genotype 1b, UniProt Q9WMX2); assay: NS3 protease assay (ENZOLYTE 520), full-length; format: biochemical, hepatitis C virus genotype 1b(con1); set-up: other: average of two sets; There is also a His tag
# Protocol: All oligonucleotides were purchased from Integrated DNA Technologies (IDT, Coralville, Iowa). Primuline derivatives were synthesized and purified as described herein. Three different NS3 proteins were used in this study. Two were truncated C-terminally His-tagged NS3 proteins lacking the N-terminal protease, called NS3h, the third was a full-length NS3 with the portion of NS4A needed for protease activation fused to its N-terminus, called scNS4A-NS3 (Howe, et al. (1999) Protein Sci. 8:1332-41), and the fourth was a 23 kDa scNS4A-NS3 protease fragment lacking the helicase domains, called scNS4A-NS3p (Protein One, Rockville, Md.). NS3h was expressed from two different HCV strains. NS3h_1b(con1) was from the con1 strain of genotype 1b (GENBANK accession AB114136), and NS3h_2a(JFH1) was from the JFH1 strain of HCV genotype 2a (GENBANK accession AJ238799). […] His-tagged recombinant NS3h_1b(con1), NS3h_2a(JFH1), and scNS4A-NS3 (also from genotype 1b(con1)) were expressed, and purified as previously described (Frick, et al. (2010) supra; Lam, et al. (2003) J. Virol. 77:3950-3961). The scNS4A-NS3p (genotype 1b) was from Protein One. A plasmid expressing NS3h from dengue virus strain 2 (NS3h_DV2)(GENBANK accession 2BMF) is known in the art (Xu, et al. (2005) J. Virol. 79:10278-10288), and used to express and purify NS3h_DV2 (Belon, et al. (2010) supra)
# All NS3 protease assays were carried out using the 5-Carboxyfluorescein-labeled substrate from the AnaSpec. ENZOLYTE 520 Protease Assay Kit (AnaSpec, San Jose, Calif.). Each assay contained 5 nM scNS4A-NS3 or 50 nM scNS4A-NS3p, […], 5% DMSO and 1× Anaspec HCV protease assay buffer. Assays were carried out in a total volume of 20 μl in black 384-well plates with fluorescence at 520 nm measured using a BMG FLUOstar Omega fluorescence spectrophotometer. Reactions were performed with eight concentrations of a two-fold dilution series of each compound (in duplicate) starting at 100 μM.
# [4] = DNA-based MBHA, genotype 1b, read-out: DNA Helicase NS3h_1b IC50 (μM) ± SD
# [5] = MBHA, DNA unwinding, mean ± SD of three titrations, read-out: Helicase IC50
# [6] = genotype 1b (con1), read-out: Target Potency MBHA (IC50 avg., μM) 1b (con1)
# [7] = standard HCV helicase MBHA (Table 9), read-out: DNA Unwinding IC50
# Sequence of scNS4A-NS3 (Q9WMX2 1027-1657): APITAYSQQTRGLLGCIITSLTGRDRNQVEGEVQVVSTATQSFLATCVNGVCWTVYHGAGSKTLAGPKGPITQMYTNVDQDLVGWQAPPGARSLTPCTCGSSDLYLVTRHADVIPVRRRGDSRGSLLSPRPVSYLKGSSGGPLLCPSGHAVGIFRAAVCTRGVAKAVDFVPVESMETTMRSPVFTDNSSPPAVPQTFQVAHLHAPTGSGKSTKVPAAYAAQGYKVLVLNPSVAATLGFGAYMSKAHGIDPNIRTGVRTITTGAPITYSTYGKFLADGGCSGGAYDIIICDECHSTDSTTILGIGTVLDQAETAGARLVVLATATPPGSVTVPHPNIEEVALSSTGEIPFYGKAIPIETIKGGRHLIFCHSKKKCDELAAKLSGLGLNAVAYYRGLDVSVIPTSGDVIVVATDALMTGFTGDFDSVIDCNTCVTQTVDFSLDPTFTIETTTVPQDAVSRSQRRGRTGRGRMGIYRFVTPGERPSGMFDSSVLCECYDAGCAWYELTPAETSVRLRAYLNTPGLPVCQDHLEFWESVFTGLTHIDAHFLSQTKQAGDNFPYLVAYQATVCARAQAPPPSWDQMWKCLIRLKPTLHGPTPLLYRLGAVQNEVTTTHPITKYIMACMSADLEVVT
# T1 sequence (Q9WMX2 1192-1657): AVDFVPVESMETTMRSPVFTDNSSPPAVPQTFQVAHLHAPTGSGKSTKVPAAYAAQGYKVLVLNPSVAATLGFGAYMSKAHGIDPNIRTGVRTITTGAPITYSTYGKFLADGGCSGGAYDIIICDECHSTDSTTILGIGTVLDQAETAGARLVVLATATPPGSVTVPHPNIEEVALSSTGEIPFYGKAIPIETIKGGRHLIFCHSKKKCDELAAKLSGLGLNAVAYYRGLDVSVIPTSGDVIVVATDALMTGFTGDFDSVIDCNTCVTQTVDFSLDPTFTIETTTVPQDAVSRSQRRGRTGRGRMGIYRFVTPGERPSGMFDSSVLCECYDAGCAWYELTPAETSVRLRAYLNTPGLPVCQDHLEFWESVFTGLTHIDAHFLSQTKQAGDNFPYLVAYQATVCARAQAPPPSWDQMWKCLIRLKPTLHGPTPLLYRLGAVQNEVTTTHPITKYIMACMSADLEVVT
# T2 sequence (Q99IB8 1196-1661): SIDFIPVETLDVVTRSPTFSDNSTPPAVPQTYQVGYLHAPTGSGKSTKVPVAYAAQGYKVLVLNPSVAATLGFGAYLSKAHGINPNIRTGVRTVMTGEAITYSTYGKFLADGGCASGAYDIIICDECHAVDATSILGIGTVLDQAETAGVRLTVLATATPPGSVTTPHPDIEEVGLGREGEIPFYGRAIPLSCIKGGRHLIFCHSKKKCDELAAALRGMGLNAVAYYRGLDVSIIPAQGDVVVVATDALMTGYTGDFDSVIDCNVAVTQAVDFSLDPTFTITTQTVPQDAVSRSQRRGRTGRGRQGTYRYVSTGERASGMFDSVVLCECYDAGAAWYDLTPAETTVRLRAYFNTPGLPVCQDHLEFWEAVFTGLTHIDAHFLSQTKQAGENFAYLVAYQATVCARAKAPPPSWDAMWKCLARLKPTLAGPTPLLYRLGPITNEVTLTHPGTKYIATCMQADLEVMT
Structure (SMILES),"IC50 [1, 4]","IC50 [1, 5]","IC50 [1, 6]","IC50 [1, 7]",IC50 [2],IC50 [3]
"Cc1ccc2nc(-c3ccc4nc(-c5ccc(NC(=O)c6ccc(N)cc6)cc5)sc4c3)sc2c1S(=O)(=O)O [Compound 6, 2′-(4-(4-aminobenzamido)phenyl)-6-methyl-[2,6′-bibenzo[d]thiazole]-7-sulfonic acid]",10 ± 2.4 µM,10 ± 2.4 µM,10.3 ± 2.4 µM,10 ± 2 µM,7 ± 3 µM,39 ± 17 µM
"Cc1ccc2nc(-c3ccc4nc(-c5ccc(NC(=O)c6ccc(F)cc6)cc5)sc4c3)sc2c1S(=O)(=O)O.N [Compound 7, 2′-(4-(4-fluorobenzamido)phenyl)-6-methyl-[2, bibenzo[d]thiazole]-7-sulfonic acid]",5 ± 0.6 µM,5.2 ± 0.6 µM,5.2 ± 0.6 µM,5 ± 1 µM,4 ± 2 µM,89 ± 47 µM
"Cc1ccc2nc(-c3ccc4nc(-c5ccc(NC(=O)c6ccc(C(F)(F)F)cc6)cc5)sc4c3)sc2c1S(=O)(=O)O [Compound 12, 6-methyl-2′-(4-(4-(trifluoromethyl)benzamido)phenyl)-[2,6′-bibenzo[d]thiazole]-7-sulfonic acid]",2 ± 0.4 µM,1.8 ± 0.4 µM,1.8 ± 0.4 µM,2 µM,3 ± 1 µM,5 ± 1 µM
"Cc1ccc2nc(-c3ccc4nc(-c5ccc(NC(=O)c6ccc(C(C)(C)C)cc6)cc5)sc4c3)sc2c1S(=O)(=O)O [Compound 13, 2′-(4-(4-(tert-butyl)benzamido)phenyl)-6-methyl-[2,6′-bibenzo[d]thiazole]-7-sulfonic acid]",8 ± 1 µM,8.2 ± 1 µM,8.2 ± 1 µM,8 ± 1 µM,9 ± 9 µM,56 ± 23 µM
"Cc1ccc2nc(-c3ccc4nc(-c5ccc(NC(=O)c6ccc(Br)cc6)cc5)sc4c3)sc2c1S(=O)(=O)O [Compound 15, 2′-(4-(4-bromobenzamido)phenyl)-6-methyl-[2,6′-bibenzo[d]thiazole]-7-sulfonic acid]",5 ± 3.9 µM,5.2 ± 4 µM,5.2 ± 4 µM,5 ± 4 µM,4 ± 2 µM,6 ± 1 µM
"Cc1ccc2nc(-c3ccc4nc(-c5ccc(NC(=O)c6cccc(Cl)c6)cc5)sc4c3)sc2c1S(=O)(=O)O [Compound 17, 2′-(4-(3-chlorobenzamido)phenyl)-6-methyl-[2,6′-bibenzo[d]thiazole]-7-sulfonic acid]",3 ± 0.8 µM,2.6 ± 1 µM,2.6 ± 1 µM,3 ± 1 µM,6 ± 3.1 µM,> 100 µM
"Cc1ccc2nc(-c3ccc4nc(-c5ccc(NC(=O)c6ccc(Cl)c(Cl)c6)cc5)sc4c3)sc2c1S(=O)(=O)O [Compound 18, 2′-(4-(3,4-dichlorobenzamido)phenyl)-6-methyl-[2,6′-bibenzo[d]thiazole]-7-sulfonic acid]",4 ± 1 µM,3.7 ± 1 µM,3.7 ± 1 µM,4 ± 1 µM,4 ± 2 µM,13 ± 4 µM
Cc1ccc2nc(-c3ccc(NC(=O)c4ccc(NC(=O)OCC5c6ccccc6-c6ccccc65)cc4)cc3)sc2c1S(=O)(=O)O.N [Compound 42],–,–,12 ± 3.7 µM,12 ± 4 µM,–,–
Cc1ccc2nc(-c3ccc(NC(=O)c4ccc(NC(=S)Nc5ccccc5)cc4)cc3)sc2c1S(=O)(=O)O.N [Compound 43],–,–,29 ± 6.9 µM,29 ± 7 µM,–,–
Cc1ccc2nc(-c3ccc(NC(=O)c4ccc(NC(=O)c5ccc(C(F)(F)F)cc5)cc4)cc3)sc2c1S(=O)(=O)O.N [Compound 44],–,–,10.4 ± 1.9 µM,10 ± 2 µM,–,–
Cc1ccc2nc(-c3ccc(NC(=O)c4ccc(NC(=O)Nc5ccccc5)cc4)cc3)sc2c1S(=O)(=O)O.N [Compound 45],–,–,44 ± 12 µM,44 ± 12 µM,–,–
Cc1ccc2nc(-c3ccc(NC(=O)c4ccc(NC(=O)c5ccc(N)cc5)cc4)cc3)sc2c1S(=O)(=O)O.N [Compound 46],–,–,30 ± 3.8 µM,29 ± 4 µM,–,–
Cc1ccc2nc(-c3ccc4nc(-c5ccc(NC(=O)Nc6ccc(C(F)(F)F)cc6)cc5)sc4c3)sc2c1S(=O)(=O)O.N [Compound 47],–,–,5.1 ± 3.3 µM,5 ± 3 µM,–,–
Cc1ccc2nc(-c3ccc4nc(-c5ccc(NC(=O)Nc6ccc(F)cc6)cc5)sc4c3)sc2c1S(=O)(=O)O.N [Compound 48],–,–,7.8 ± 2.2 µM,8 ± 2 µM,–,–
Cc1ccc2nc(-c3ccc4nc(-c5ccc(NC(=O)c6cccc7ccccc67)cc5)sc4c3)sc2c1S(=O)(=O)O.N [Compound 49],–,–,4.5 ± 0.4 µM,5 µM,–,–
Cc1ccc2nc(-c3ccc4nc(-c5ccc(NC(=S)Nc6ccccc6)cc5)sc4c3)sc2c1S(=O)(=O)O.N [Compound 50],–,–,9.3 ± 3.8 µM,9 ± 4 µM,–,–
Cc1ccc2nc(-c3ccc(NC(=O)c4ccc(NC(=O)c5ccc(NC(=O)OCC6c7ccccc7-c7ccccc76)cc5)cc4)cc3)sc2c1S(=O)(=O)O.N [Compound 51],–,–,2.5 ± 0.5 µM,3 µM,–,–
Cc1ccc2nc(-c3ccc4nc(-c5ccc(NC(=O)Nc6ccccc6)cc5)sc4c3)sc2c1S(=O)(=O)O.N [Compound 52],–,–,4.1 ± 1.3 µM,4 ± 1 µM,–,–
Cc1ccc2nc(-c3ccc4nc(-c5ccc(NCc6ccccc6)cc5)sc4c3)sc2c1S(=O)(=O)O [Compound 53],–,–,11 ± 1.6 µM,11 ± 2 µM,–,–
Cc1ccc2nc(-c3ccc4nc(-c5ccc(NC(=O)Nc6ccc(Cl)cc6)cc5)sc4c3)sc2c1S(=O)(=O)O [Compound 54],–,–,3.6 ± 0.9 µM,4 ± 1 µM,–,–
COc1ccc(NC(=O)Nc2ccc(-c3nc4ccc(-c5nc6ccc(C)c(S(=O)(=O)O)c6s5)cc4s3)cc2)cc1 [Compound 55],–,–,4.8 ± 2 µM,5 ± 2 µM,–,–
"Cc1ccc2nc(-c3ccc4nc(-c5ccc6nc(-c7ccc(N)cc7)sc6c5)sc4c3)sc2c1S(=O)(=O)O [Compound P3, 2″-(4-aminophenyl)-6-methyl-[2,6′:2′,6″-terbenzo[d]thiazole]-7-sulfonic acid]",–,0.9 ± 0.1 µM,–,–,–,–

# From patent US9464064B2, “HCV helicase inhibitors and methods of use thereof” (University of Kansas, priority 2011, dated 2016)
